Experimental data taken from ChEMBL document CHEMBL1914447, “Novel orally active antimalarial thiazoles” (J Med Chem, 2011).
In brackets after ≈: the same amount, converted by molar mass.

Experiments:
Plasmodium berghei [1] = assay: Antimalarial activity against GFP-transfected Plasmodium berghei ANKA infected in NMRI mouse assessed as mean survival time at 30 mg/kg, po administered as single dose; type: functional
Plasmodium berghei [2] = assay: Antimalarial activity against GFP-transfected Plasmodium berghei ANKA infected in NMRI mouse assessed as mean survival time at 10 mg/kg, po administered as single dose; type: functional
Plasmodium berghei [3] = assay: Antimalarial activity against GFP-transfected Plasmodium berghei ANKA infected in NMRI mouse assessed as mean survival time at 50 mg/kg, po administered as quadruple dose regimen; type: functional
[4] = Apparent half life in Sprague-Dawley rat at 4.5 […], iv; type: ADME, organism-based; conditions: in vivo, read-out: t1/2(app) (converted)
[5] = Total clearance in Sprague-Dawley rat plasma at 4.5 mg/kg, iv; type: ADME, organism-based; design: dose 4.5 mg/kg, route intravenous
[6] = Total clearance in Sprague-Dawley rat blood at 4.5 mg/kg, iv; type: ADME, organism-based; design: dose 4.5 mg/kg, route intravenous; conditions: whole blood
[7] = Ratio of drug level in blood to plasma of Sprague-Dawley rat at 4.5 mg/kg, iv; type: ADME, organism-based; design: dose 4.5 mg/kg, route intravenous; conditions: whole blood and plasma
[8] = Volume of distribution at steady state in Sprague-Dawley rat at 4.5 mg/kg, iv; type: ADME, organism-based; design: dose 4.5 mg/kg, route intravenous; conditions: in vivo, read-out: Vdss
[9] = AUC (0 to infinity) in Sprague-Dawley rat plasma at 4.5 mg/kg, iv by LCMS analysis; type: ADME, organism-based; design: time infinity, dose 4.5 mg/kg, route intravenous
[10] = Apparent half life in Sprague-Dawley rat at 21.8 […], po; type: ADME, organism-based; conditions: in vivo, read-out: t1/2(app) (converted)
[11] = Cmax in Sprague-Dawley rat plasma at 21.8 mg/kg, po by LCMS analysis; type: ADME, organism-based; design: dose 21.8 mg/kg, route oral
[12] = Tmax in Sprague-Dawley rat at 21.8 mg/kg, po by LCMS analysis; type: ADME, organism-based; design: dose 21.8 mg/kg, route oral; conditions: in vivo
[13] = AUC (0 to infinity) in Sprague-Dawley rat plasma at 21.8 mg/kg, po by LCMS analysis; type: ADME, organism-based; design: time infinity, dose 21.8 mg/kg, route oral
[14] = Oral bioavailability in Sprague-Dawley rat at 21.8 mg/kg; type: ADME, organism-based; conditions: in vivo
[15] = Plasma protein binding in human at 200 ng/mL; type: ADME, cell-free; conditions: read-out: PPB (converted)
[16] = Plasma protein binding in rat at 200 ng/mL; type: ADME, cell-free; conditions: read-out: PPB (converted)
[17] = Plasma protein binding in mouse at 200 ng/mL; type: ADME, cell-free; conditions: read-out: PPB (converted)
Liver microsomes [18] = assay: Metabolic stability in human liver microsomes at 1 uM by LC-MS analysis; type: ADME, Microsome
Liver microsomes [19] = assay: Metabolic stability in rat liver microsomes at 1 uM by LC-MS analysis; type: ADME, Microsome
Liver = assay: Metabolic stability in mouse liver microsomes at 1 uM by LC-MS analysis; type: ADME, Microsome
Plasmodium berghei [20] = assay: Antimalarial activity against GFP-transfected Plasmodium berghei ANKA infected in po dosed NMRI mouse assessed as reduction in parasitemia administered as single dose after 72 hrs by flow cytometry; type: functional
Plasmodium berghei [21] = assay: Antimalarial activity against GFP-transfected Plasmodium berghei ANKA infected in NMRI mouse assessed as mean survival time at 100 mg/kg, po administered as single dose; type: functional
Plasmodium berghei [22] = assay: Antimalarial activity against GFP-transfected Plasmodium berghei ANKA infected in NMRI mouse assessed as mean survival time at 200 mg/kg, po administered as single dose after 72 hrs; type: functional
Plasmodium berghei [23] = assay: Antimalarial activity against GFP-transfected Plasmodium berghei ANKA infected in NMRI mouse assessed as reduction in parasitemia at 50 mg/kg, po administered as quadruple dose regimen after 4 days by flow cytometry; type: functional; design: scale not given: the % may be the effect or the level left
Plasmodium berghei [24] = assay: Antimalarial activity against GFP-transfected Plasmodium berghei ANKA infected in NMRI mouse assessed as reduction in parasitemia at 10 mg/kg, po administered as single dose after 72 hrs by flow cytometry; type: functional; design: scale not given: the % may be the effect or the level left
Plasmodium berghei [25] = assay: Antimalarial activity against GFP-transfected Plasmodium berghei ANKA infected in NMRI mouse assessed as reduction in parasitemia at 30 mg/kg, po administered as single dose after 72 hrs by flow cytometry; type: functional; design: scale not given: the % may be the effect or the level left
Plasmodium berghei [26] = assay: Antimalarial activity against GFP-transfected Plasmodium berghei ANKA infected in NMRI mouse assessed as reduction in parasitemia at 100 mg/kg, po administered as single dose after 72 hrs by flow cytometry; type: functional; design: scale not given: the % may be the effect or the level left
L6 = assay: Cytotoxicity against rat L6 cells assessed after 72 hrs by alamar blue staining; type: cell-based; conditions: L6, 72 h
Plasmodium berghei [27] = assay: Antimalarial activity against GFP-transfected Plasmodium berghei ANKA infected in NMRI mouse assessed as reduction in parasitemia at 200 mg/kg, po administered as single dose after 72 hrs by flow cytometry; type: functional; design: scale not given: the % may be the effect or the level left
[28] = biological target: Voltage-gated inwardly rectifying potassium channel KCNH2 (Homo sapiens, UniProt Q12809); assay: Inhibition of human ERG expressed in Chinese hamster CHL cells by perforated patch clamp assay; type: cell-based
CYP3A4/5 [29] = biological target: T1, CYP3A4/5 (Homo sapiens, UniProt P08684+P20815); assay: Inhibition of CYP3A4/5-mediated testosterone 6beta-hydroxylation in human liver microsomes by LCMS analysis; type: ADME, Microsome; conditions: probe testosterone (6beta-hydroxylation)
CYP3A4/5 [30] = biological target: T1, CYP3A4/5; assay: Inhibition of CYP3A4/5-mediated midazolam 1'-hydroxylation in human liver microsomes by LCMS analysis; type: ADME, Microsome; conditions: probe midazolam (1'-hydroxylation)
Cytochrome P450 2D6 = Cytochrome P450 2D6 (Homo sapiens, UniProt P10635); assay: Inhibition of CYP2D6-mediated dextromethorphan O-demethylation in human liver microsomes by LCMS analysis; type: ADME, Microsome
Cytochrome P450 2C19 = Cytochrome P450 2C19 (Homo sapiens, UniProt P33261); assay: Inhibition of CYP2C19-mediated (S)-mephenytoin 4'-hydroxylation in human liver microsomes by LCMS analysis; type: ADME, Microsome
Cytochrome P450 2C9 = Cytochrome P450 2C9 (Homo sapiens, UniProt P11712); assay: Inhibition of CYP2C9-mediated Tolbutamide methlyhydroxylation in human liver microsomes by LCMS analysis; type: ADME, Microsome
Cytochrome P450 1A2 = biological target: T2, Cytochrome P450 1A2 (Homo sapiens, UniProt P05177); assay: Inhibition of CYP1A2-mediated phencetin o-de-ethylation in human liver microsomes by LCMS analysis; type: ADME, Microsome
T2 sequence (P05177 whole entry): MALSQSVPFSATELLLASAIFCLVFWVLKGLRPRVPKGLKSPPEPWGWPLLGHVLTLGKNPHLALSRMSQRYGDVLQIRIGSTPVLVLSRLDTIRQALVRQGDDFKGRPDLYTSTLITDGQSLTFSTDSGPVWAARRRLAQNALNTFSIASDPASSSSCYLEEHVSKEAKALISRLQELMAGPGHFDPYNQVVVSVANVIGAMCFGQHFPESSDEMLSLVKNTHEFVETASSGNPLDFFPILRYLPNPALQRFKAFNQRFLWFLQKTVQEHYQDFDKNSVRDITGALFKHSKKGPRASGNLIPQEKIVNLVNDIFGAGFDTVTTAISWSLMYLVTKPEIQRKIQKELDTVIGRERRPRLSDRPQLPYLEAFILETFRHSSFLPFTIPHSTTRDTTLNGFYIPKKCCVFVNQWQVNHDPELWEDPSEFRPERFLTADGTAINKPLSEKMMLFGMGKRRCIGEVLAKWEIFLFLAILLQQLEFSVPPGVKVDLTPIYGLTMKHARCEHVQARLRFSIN

[31] = Lipophilicity, log D of the compound by gradient HPLC at pH 3.0; type: physicochemical; conditions: buffer
[32] = Lipophilicity, log D of the compound by gradient HPLC at pH 7.4; type: physicochemical; conditions: buffer
[33] = Equilibrium solubility of the compound by nephelometry at pH 2.0; type: physicochemical; conditions: buffer
[34] = Equilibrium solubility of the compound by nephelometry at pH 6.5; type: physicochemical; conditions: buffer
Plasmodium falciparum [35] = assay: microbe, parasite or virus in culture; conditions: K1
Plasmodium falciparum [36] = assay: microbe, parasite or virus in culture; conditions: NF54

Cytochrome P450 2C9, sequence (P11712 whole entry): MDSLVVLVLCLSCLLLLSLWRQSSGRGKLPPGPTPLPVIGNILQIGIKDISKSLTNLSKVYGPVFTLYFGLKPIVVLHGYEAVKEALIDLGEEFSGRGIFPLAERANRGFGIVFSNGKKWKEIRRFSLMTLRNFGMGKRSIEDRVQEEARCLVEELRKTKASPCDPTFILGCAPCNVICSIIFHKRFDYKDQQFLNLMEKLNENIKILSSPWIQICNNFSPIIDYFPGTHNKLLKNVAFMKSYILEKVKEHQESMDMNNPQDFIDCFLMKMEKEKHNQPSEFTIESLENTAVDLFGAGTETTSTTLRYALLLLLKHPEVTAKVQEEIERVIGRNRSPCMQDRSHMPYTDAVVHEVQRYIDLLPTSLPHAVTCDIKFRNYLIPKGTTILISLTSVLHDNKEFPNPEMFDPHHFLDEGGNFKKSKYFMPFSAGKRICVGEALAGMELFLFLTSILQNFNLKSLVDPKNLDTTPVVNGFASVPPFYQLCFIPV
Voltage-gated inwardly rectifying potassium channel KCNH2, sequence (Q12809 whole entry): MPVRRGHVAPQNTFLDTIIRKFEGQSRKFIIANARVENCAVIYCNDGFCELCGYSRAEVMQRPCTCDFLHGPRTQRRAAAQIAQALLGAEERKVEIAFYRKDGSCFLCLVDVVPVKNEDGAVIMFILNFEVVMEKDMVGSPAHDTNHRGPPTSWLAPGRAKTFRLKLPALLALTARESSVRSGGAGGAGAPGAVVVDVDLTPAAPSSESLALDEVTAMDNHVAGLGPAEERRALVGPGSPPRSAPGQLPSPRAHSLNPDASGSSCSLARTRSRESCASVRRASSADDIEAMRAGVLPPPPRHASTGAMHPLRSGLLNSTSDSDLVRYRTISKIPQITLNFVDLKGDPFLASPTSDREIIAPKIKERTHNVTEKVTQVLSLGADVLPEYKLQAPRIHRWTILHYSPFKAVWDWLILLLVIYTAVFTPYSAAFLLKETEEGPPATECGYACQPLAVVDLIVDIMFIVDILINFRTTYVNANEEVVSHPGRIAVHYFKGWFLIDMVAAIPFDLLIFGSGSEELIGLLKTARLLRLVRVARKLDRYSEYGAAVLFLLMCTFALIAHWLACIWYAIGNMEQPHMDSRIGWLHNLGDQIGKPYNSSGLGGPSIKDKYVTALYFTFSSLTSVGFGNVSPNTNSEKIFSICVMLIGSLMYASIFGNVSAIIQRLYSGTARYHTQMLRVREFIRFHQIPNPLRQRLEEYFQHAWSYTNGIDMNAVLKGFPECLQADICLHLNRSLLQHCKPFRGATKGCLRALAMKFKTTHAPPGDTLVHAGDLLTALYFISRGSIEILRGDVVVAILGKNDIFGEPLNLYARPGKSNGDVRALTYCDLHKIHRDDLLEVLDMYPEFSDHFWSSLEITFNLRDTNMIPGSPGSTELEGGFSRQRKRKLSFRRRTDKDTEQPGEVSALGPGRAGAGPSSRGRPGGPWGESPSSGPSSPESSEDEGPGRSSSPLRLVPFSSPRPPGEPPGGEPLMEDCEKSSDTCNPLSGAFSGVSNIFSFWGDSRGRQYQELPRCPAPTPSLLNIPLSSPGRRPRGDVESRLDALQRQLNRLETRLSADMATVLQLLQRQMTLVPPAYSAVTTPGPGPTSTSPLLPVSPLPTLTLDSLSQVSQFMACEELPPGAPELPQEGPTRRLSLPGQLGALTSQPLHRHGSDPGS
Cytochrome P450 2D6, sequence (P10635 whole entry): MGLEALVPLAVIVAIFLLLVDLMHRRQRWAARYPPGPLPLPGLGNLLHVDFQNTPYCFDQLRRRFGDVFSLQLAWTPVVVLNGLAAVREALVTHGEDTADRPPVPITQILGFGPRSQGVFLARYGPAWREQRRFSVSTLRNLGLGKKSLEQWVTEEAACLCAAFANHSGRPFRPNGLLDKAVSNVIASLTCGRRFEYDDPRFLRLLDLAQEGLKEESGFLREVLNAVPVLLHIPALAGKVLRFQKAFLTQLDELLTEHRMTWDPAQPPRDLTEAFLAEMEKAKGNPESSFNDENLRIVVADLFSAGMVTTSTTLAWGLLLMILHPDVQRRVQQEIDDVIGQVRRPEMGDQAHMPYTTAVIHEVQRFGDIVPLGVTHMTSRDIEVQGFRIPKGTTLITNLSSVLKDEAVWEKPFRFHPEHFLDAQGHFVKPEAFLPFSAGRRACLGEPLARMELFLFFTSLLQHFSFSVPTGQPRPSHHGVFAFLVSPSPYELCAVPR
Cytochrome P450 2C19, sequence (P33261 whole entry): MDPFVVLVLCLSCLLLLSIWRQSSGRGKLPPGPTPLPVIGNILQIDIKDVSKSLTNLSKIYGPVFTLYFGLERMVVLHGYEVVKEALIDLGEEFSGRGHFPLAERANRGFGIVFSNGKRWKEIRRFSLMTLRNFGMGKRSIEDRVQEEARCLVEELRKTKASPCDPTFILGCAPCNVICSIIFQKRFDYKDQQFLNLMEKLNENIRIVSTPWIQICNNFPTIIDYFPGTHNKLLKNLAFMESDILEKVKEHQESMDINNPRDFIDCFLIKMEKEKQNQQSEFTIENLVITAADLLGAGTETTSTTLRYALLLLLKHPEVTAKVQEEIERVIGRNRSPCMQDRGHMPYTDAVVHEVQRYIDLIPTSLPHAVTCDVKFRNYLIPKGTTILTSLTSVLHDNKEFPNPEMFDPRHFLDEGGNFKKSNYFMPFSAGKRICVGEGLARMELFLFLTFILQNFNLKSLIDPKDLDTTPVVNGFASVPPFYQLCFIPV

CC(C)(C)c1cc(C(=O)Nc2nc(CN)cs2)n(Cc2ccccc2)n1
MSD (Plasmodium berghei [1]): 6 days | MSD (Plasmodium berghei [2]): 3 days | MSD (Plasmodium berghei [3]): 9 days | half-life [4]: 3.7 h | clearance [5]: 42.6 mL/min/kg | clearance [6]: 39.1 mL/min/kg | blood plasma ratio [7]: 1.1 | Vd [8]: 10.1 L/kg | AUC(0-inf) [9]: 4.82 µM·h | half-life [10]: 3.1 h | Cmax [11]: 1600 nM | Tmax [12]: 3.25 h | AUC(0-inf) [13]: 11.8 µM·h | bioavailability [14]: 50.4% | fraction unbound at 200 ng/mL [15]: 0.06 | fraction unbound at 200 ng/mL [16]: 0.029 | fraction unbound at 200 ng/mL [17]: 0.021 | Stability (Liver microsomes [18]): Stable | Stability (Liver microsomes [19]): Stable | Stability (Liver): Stable | ED50 (Plasmodium berghei [20]): 37 mg/kg | ED90 (Plasmodium berghei [20]): 86 mg/kg | MSD (Plasmodium berghei [21]): 6 days | MSD (Plasmodium berghei [22]): 8 days | Activity (Plasmodium berghei [23]): 99.5% | Activity (Plasmodium berghei [24]): <40% | Activity (Plasmodium berghei [25]): <40% | Activity (Plasmodium berghei [26]): 94% | IC50 (L6): 4.9 µM | Activity (Plasmodium berghei [27]): 99.4% | IC50 [28]: 3.7 µM | IC50 (CYP3A4/5 [29]): > 30 µM | IC50 (CYP3A4/5 [30]): > 30 µM | IC50 (Cytochrome P450 2D6): 0.4 µM | IC50 (Cytochrome P450 2C19): 15 µM | IC50 (Cytochrome P450 2C9): 10 µM | IC50 (Cytochrome P450 1A2): 1.5 µM | chromatographic logD [31]: 2.4 | chromatographic logD [32]: 3.5 | solubility [33]: 4930 µg/mL (≈ 13.3 mM) | solubility [34]: 142 µg/mL (≈ 0.385 mM) | IC50 (Plasmodium falciparum [35]): 0.08 µM | IC50 (Plasmodium falciparum [36]): 0.07 µM
